Data: US6060481A, “Method for improving insulin sensitivity using an adenosine receptor antagonist” (priority 1999, dated 2000)

Columns and labels:
[1] = molecular target: T1, human A2A adenosine receptor (Homo sapiens, UniProt P29274); assay: Binding constants against cloned and expressed human adenosine receptor subtypes (A2A); settings: read-out: Binding constant (KD) A2A
T1 construct: expressed in transfected cells

[2] = Basal postabsorptive glucose kinetics; type: in vivo, Zucker rats; settings: for Glucose Concentration / Glucose MCR / Glucose Ra: basal postabsorptive, treated 1 wk
Procedure: In this example, 6-8 week old lean and obese female animals were used. Each group received either vehicle or vehicle plus 1,3-dipropyl-8-(p-acrylic)phenylxanthine (BWA1433) (12 mg/kg every 12 h) for one week prior to the start of the experimental protocol, as described by Xu, et al., Am. […] The vehicle in this case was 10 mg/ml methyl cellulose in H2 O. The final dose of BWA1433 or vehicle was administered approximately 1 h prior to the start of the experimental protocol.
On the day prior to the start of the experimental protocol, animals were anesthetized with an intramuscular injection of ketamine and xylazine (90 and 9 mg/kg body weight, respectively), and sterile surgery was performed to implant catheters in the carotid artery and jugular vein according to the methods taught by Lang et al., Endocrinology, 130: 43-52 (1992). After surgery, animals were housed in individual cages and provided water ad libitum. Animals were fasted overnight.
The following morning, a primed, constant intravenous infusion of [3-^3 H]glucose (high-performance liquid chromatography purified; DuPont-New England Nuclear, Boston, Mass.) was initiated to determine basal glucose kinetics. A 7-μCi bolus injection of labeled glucose was administered followed by a continuous infusion at a rate of 0.083 μCi/min for the next 2 h. Arterial blood samples were collected at 100 and 120 min (0.3 ml each) after the start of the tracer infusion. Blood was collected in heparinized syringes, centrifuged, and the plasma glucose concentration and glucose specific activity were determined on each sample.
Rates of whole body glucose appearance (Ra) and disappearance (Rd) are calculated using the steady-state equations of Steele, Ann. […] The glucose metabolic clearance rate (MCR) is calculated by dividing the glucose Rd by the prevailing glucose concentration.

[3] = molecular target: T2, rat A3 receptor (Rattus norvegicus, UniProt P28647); settings: rat versus human A3; cited from earlier work
T2 sequence (P28647 1-320): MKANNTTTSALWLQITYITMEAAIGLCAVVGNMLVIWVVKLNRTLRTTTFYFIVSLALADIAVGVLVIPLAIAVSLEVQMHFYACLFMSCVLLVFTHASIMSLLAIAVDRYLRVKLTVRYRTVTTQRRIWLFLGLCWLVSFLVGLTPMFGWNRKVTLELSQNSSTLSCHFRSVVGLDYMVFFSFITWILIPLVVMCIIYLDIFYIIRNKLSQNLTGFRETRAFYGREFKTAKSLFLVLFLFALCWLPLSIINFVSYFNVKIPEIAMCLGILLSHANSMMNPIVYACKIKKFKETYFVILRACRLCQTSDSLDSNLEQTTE

T1 sequence (P29274 whole entry): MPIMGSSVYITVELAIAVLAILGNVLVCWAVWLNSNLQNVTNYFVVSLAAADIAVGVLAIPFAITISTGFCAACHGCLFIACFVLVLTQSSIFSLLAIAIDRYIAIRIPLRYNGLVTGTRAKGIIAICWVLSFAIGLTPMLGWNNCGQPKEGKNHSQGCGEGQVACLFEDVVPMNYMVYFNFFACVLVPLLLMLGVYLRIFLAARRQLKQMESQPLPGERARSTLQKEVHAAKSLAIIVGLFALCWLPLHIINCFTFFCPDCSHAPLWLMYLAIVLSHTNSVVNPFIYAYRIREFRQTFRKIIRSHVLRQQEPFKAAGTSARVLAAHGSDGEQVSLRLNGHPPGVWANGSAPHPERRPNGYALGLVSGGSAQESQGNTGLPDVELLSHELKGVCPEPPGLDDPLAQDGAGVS

CCCn1c(=O)c2[nH]c(-c3ccc(C=CC(=O)O)cc3)nc2n(CCC)c1=O [BWA1433, 1,3-dipropyl-8-(p-acrylic)phenylxanthine]
Kd [1]: 190 nM | Alterations in any parameter of glucose metabolism ([2]; basal conditions, either group (lean, obese)): did not produce detectable alterations | Glucose Concentration ([2]; lean rats): 5.1 ± 0.2 mM | Glucose MCR ([2]; lean rats): 7.1 ± 0.8 ml · min^-1 .multidot | Glucose Ra ([2]; lean rats): 36.8 ± 2.9 μmol^-1 · min .multid | Glucose Concentration ([2]; obese rats): 4.5 ± 0.2 mM | Glucose MCR ([2]; obese rats): 8.3 ± 0.8 ml · min^-1 .multidot | Glucose Ra ([2]; obese rats): 37.5 ± 4.8 μmol^-1 · min .multid | KD of rat A3 receptor relative to human A3 receptor [3]: much higher
